Values quoted from earlier work as cited in patent US20120259154A1, “In Vivo Immunomagnetic Hyperthermia Platform for Any Cell or Virus Having a Target Surface Receptor” (IVDiagnostics, Inc., priority 2011, published 2012).

Conditions: following intravenous administration

t1/2 (clearance from the blood): 3.5 min
Substance: folate-FITC
